Assay results taken from patent US9399631B2, “Polyphenol proteasome inhibitors, synthesis, and methods of use” (UNIVERSITY OF SOUTH FLORIDA, priority 2003, dated 2016).

What was measured:
[1] = molecular target: T1, 20S eukaryotic proteasome (Oryctolagus cuniculus, UniProt G1T4Q9); assay: Inhibition of chymotrypsin-like activity of purified eukaryotic 20S proteasome (Suc-Leu-Leu-Val-Tyr-AMC); assay type: biochemical, rabbit; conditions: for IC50: chymotrypsin-like activity, rabbit 20S proteasome
T1 construct: purchased BOSTON BIOCHEM (Cambridge, Mass.)
T1 sequence (G1T4Q9 1-263): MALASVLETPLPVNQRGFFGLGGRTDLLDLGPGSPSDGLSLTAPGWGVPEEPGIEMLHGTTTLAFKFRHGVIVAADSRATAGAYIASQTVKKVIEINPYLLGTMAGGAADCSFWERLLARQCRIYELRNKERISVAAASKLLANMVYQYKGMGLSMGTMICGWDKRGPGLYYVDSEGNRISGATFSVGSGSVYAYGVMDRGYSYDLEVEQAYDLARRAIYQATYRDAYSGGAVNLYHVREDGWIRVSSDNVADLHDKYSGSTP
Method in brief: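 Purified rabbit 20S proteasome (0.02 μg) incubated with 20 μM Suc-LLVY-AMC for 30 min at 37° C in Tris-HCl pH 7.5, with or without compound. Chymotrypsin-like activity read as released AMC fluorescence (Ex 380 or 355 nm/Em 460 nm).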

LNCaP cells = assay: Soft agar colony formation assay; assay type: cell-based, human; conditions: 10 μM, 14 day-incubation
Method in brief: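 2×10^4 human prostate cancer cells seeded in 0.3% top agar over a 0.6% agar layer (DMEM, 10% FBS) together with analogs at 50 μM or 10 μM, or solvent control. Incubated 14 days at 37 °C, 5% CO2, then stained overnight with MTT (1 mg/ml). Colonies counted; means of triplicate independent experiments ± SD.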

SMILES | IC50 [1] [nM] | inhibition at 10 µM (LNCaP cells; Homo sapiens, LNCaP, 336 h) [%] | inhibition of colony formation (LNCaP cells) [%] | reversal of proteasome inhibition by SDS ([1]; 1 μM, 0.01% SDS added after 1 hour (SDS-post)) | inhibition of chymotrypsin-like activity ([1]; 1 μM, 5 min) [%] | inhibition of chymotrypsin-like activity ([1]; 1 μM, 30 min) [%] | inhibition of chymotrypsin-like activity ([1]; 1 μM, after 1 to 3 hours) | inhibition of chymotrypsin-like activity ([1]; 1 μM, no SDS) | inhibition of chymotrypsin-like activity ([1]; 1 μM, pre-incubation with 0.01% SDS for 1 hour (SDS-pre))
O=C(N[C@@H]1Cc2c(O)cc(O)cc2O[C@@H]1c1cc(O)c(O)c(O)c1)c1cc(O)c(O)c(O)c1 [(−)-EGCG-amide, (−)-[2R,3R]-N-[5,7-Dihydroxy-2-(3,4,5-trihydroxyphenyl)-chroman-3-yl]-3,4,5-trihydroxybenzamide] | 320 |  |  |  |  |  |  |  | 
O=C(OC1Cc2c(O)cc(O)cc2OC1c1cc(O)c(O)c(O)c1)c1cc(O)c(O)c(O)c1 (single isomer, unassigned; (+)) [(+)-GCG] | 270 | 91.5 |  |  |  |  |  |  | 
O=C(OC1Cc2c(O)cc(O)cc2OC1c1cc(O)c(O)c(O)c1)c1cc(O)c(O)c(O)c1 (single isomer, unassigned; (+)) [(+)-EGCG] | 170 |  | 99.5 |  |  |  |  |  | 
O=C(O[C@@H]1Cc2c(O)cc(O)cc2O[C@@H]1c1cc(O)c(O)c(O)c1)c1cc(O)c(O)c(O)c1 [(−)-EGCG, (−)-epigallocatechin-3-gallate, reference compound] | 205 |  | 99.0 | could not reverse the EGCG-mediated proteasome inhibition | 35 | 62 | 70-80% | up to 75% | 10-20%
